# Source: US7256183B2, “Method for treating or preventing inflammatory diseases” (Inspire Pharmaceuticals, Inc., priority 2001, dated 2007)
# What was measured:
# [1] = tested on: ocular active anaphylaxis with egg albumin as an antigen; assay: Ocular active anaphylaxis, guinea pig egg albumin model; type: in vivo, albino guinea pigs; conditions: FIG. 2; for magnitude of reduction on eyeballs, UP4U versus reference controls: guinea pigs, egg albumin, 2% UP4U, 0.05% levocabastine, 0.025% ketotifen, 0.1% olopatadine eye drops
# Text: The guinea pig model of ocular active anaphylaxis with egg albumin as an antigen, serves as a testing system for anti-inflammatory and anti-allergic drugs (Yamaji, et al., Methods Find. Exp. Clin. Pharmacol. 19(9): 637-43 (1997)). The ocular effects of compounds and vehicle control were investigated using an experimentally-induced ocular active anaphylaxis in the guinea pig. Ten albino guinea pigs per group were sensitized with an intraperitoneal injection of egg albumin, followed 14 days later with a challenge by a single ocular instillation of egg albumin. Four times daily for 3 days and twice on the fourth day (the last one 2 h before challenge), test substances were instilled into the right conjunctival sac of the animals. The immune response was induced by immunization with egg albumin, and the ocular reaction was induced by ocular instillation of egg albumin, thereby causing the release of allergy mediators and ocular edema. Efficacy was evaluated by measuring edema: clinical scores and extravasation of Evans blue dye (blood-eyelids and blood-eyeballs permeability indexes). Comparison was made between the test substances, the test substances vehicle, the reference substance (0.05% levocabastine eye drops—Lévophta®; 0.025% ketotifen eyedrops—Zaditor®; and 0.1% olopatadine eyedrops—Patanol™), and negative control animals (untreated and unchallenged). The model was previously validated (Khosravi, et al., Inflamm. Res. 44(1): 47-54 (1995)).
# [2] = tested on: compound 48/80 ocular surface type-1 hypersensitivity; assay: Ocular Type-1 hypersensitivity in albino rats (topical 48/80 model); type: in vivo; conditions: FIG. 1; for magnitude of reduction in vascular leakage and Evans blue extravasation, UP4U versus reference controls: rats, 48/80, 2% UP4U, 0.05% levocabastine, 0.025% ketotifen, 0.1% olopatadine eye drops
# Protocol: The rat model of ocular immediate (Type-1) hypersensitivity using topical compound 48/80 was used for testing anti-inflammatory drugs (Feinberg and Stokes, Int. Arch. Allergy Appl. Immunol. 82(3-4): 537-8. (1987)). The effects of levocabastine, ketotifen, and olopatadine, which are three approved drugs for the use of ocular surface inflammation, particularly allergic conjunctivitis, were assessed. UP4U was investigated for its effects on mitigating the clinical signs of compound 48/80 on ocular surface type-1 hypersensitivity. Ten albino rats per group were administered compound or vehicle four times daily for 3 days and twice on the fourth day (the last administration 2 h before challenge with 48/80). Comparison was made between the test substances, the test substances vehicle, the reference substance (0.05% levocabastine eye drops—Lévophta®; 0.025% ketotifen eyedrops—Zaditor®; and 0.1% olopatadine eyedrops—Patanol™), and negative control animals (untreated and unchallenged). Eye drops were instilled into the right conjunctival sac of each animal with test substances. […] The formulated compounds or vehicle were allowed to gradually run from the top to the bottom of the ocular surface. Efficacy was evaluated by measuring edema: clinical scores and extravasation of Evans blue dye (blood-eyelids and blood-eyeballs permeability indexes). The model has been previously validated (Khosravi, et al., Inflamm. Res. 44(1): 47-54 (1995)).
# [3] = tested on: symptoms of perennial allergic rhinitis (PAR); assay: Perennial allergic rhinitis symptom study with nasal spray; type: in vivo, humans
# Text: This example illustrates the efficacy of a U[…] nasal spray in reducing the symptoms of perennial allergic rhinitis (PAR) in humans. Patients with PAR suffer year-round from symptoms of allergic rhinitis because they are sensitized to allergens that are present in homes and the environment throughout the year, including dust mites, molds, and animal […] (dogs, cats, cockroaches, etc). Patients with PAR experience a constellation of nasal symptoms including nasal stuffiness/congestion, runny nose, post-nasal drip, sneezing and nasal itching. These symptoms were evaluated in pivotal efficacy trials as the total nasal symptom score (TNSS) as well as by evaluating each individual symptom, including the non-nasal symptoms of facial pain/pressure and cough. Patients rated each individual symptom on a scale from 0 (none) to 3 (severe) twice daily, reflecting their symptoms upon awakening (AM) and throughout the day (PM). Fifty-nine subjects with a documented history of PAR participated in a randomized, double-blind, 3-center, parallel-group study. […] Study medication was delivered twice daily as a non-preserved aqueous nasal spray as 2 sprays (100 μL in each spray) in each nostril. […] This was most notable for the 10 mg/ml U[…] group. Comparisons of pooled active versus placebo TNSS scores approached statistical significance for AM scores (p=0.139). Table 3 indicates the symptom and dose combinations that provided statistically significant reductions (p≦0.05) compared with placebo on any day during the 6-day treatment period. Conversely, significant symptom reductions in favor of placebo were observed on one day (PM sneezing, Day 2).
# [4] = tested on: mucociliary clearance of nasal tissue; assay: Nasal spray saccharin transport time (STT) test; type: in vivo, humans; conditions: for mean STT: pooled PAR and NR and across doses 5-80 mg/mL, single dose nasal spray, with outliers, (±SD); for STT mean (± SD): across all cohorts, NR and PAR groups pooled, without outliers (<1 minute or >30 minutes excluded)
# Protocol: The speed with which the saccharin was transported this distance is a measure of mucociliary clearance.
# Sixty subjects, 30 healthy non-rhinitic (NR) volunteers and 30 subjects with perennial allergic rhinitis (PAR), participated in a randomized, double-blind, single-center, 2-period crossover study evaluating escalating, single doses of a UP4dC nasal spray delivered as a non-preserved aqueous nasal spray. Each subject received a single dose (2 sprays in each nostril, 140 μL/spray) of UP4dC and placebo (0.9% w/v saline spray) on two treatment days in random order (crossover design). Five cohorts of 12 subjects received five concentration levels of UP4dC (5, 10, 20, 40, and 80 mg/mL) in ascending order. The STT was performed 5-minutes and 300-minutes post-dose on each treatment day on each subject (a saccharin particle was placed in the nose at 5 and 300 minutes post-dose and then time to taste was recorded).
# Analyses were carried out excluding those STT values that were either too fast (<1 minute) or too slow (>30 minutes). Both of these scenarios are deemed as errors and are a likely result of the saccharin particle being inappropriately administered.
# [5] = 5 mg/mL, 6-day treatment period
# [6] = 10 mg/mL, 6-day treatment period
# [7] = 40 mg/mL, 6-day treatment period
smiles,measurement,setting,value
"CN(C)CC/C=C1/c2ccccc2COc2ccc(CC(=O)O)cc21 [olopatadine, reference compound]","magnitude of reduction on eyeballs, UP4U versus reference controls",[1],comparable
same,"magnitude of reduction in vascular leakage and Evans blue extravasation, UP4U versus reference controls",[2],comparable
"O=c1ccn([C@@H]2O[C@H](COP(=O)(O)OP(=O)(O)OP(=O)(O)OP(=O)(O)OC[C@H]3O[C@@H](n4ccc(=O)[nH]c4=O)[C@H](O)[C@@H]3O)[C@@H](O)[C@H]2O)c(=O)[nH]1 [UP4U, P^1,P^4-di(uridine 5′-)tetraphosphate]",vascular leakage and Evans blue extravasation on eyeballs,"[1]; guinea pigs challenged with egg albumin, 2% UP4U eye drops four times daily for 3 days and twice on the fourth day",reduced
same,"magnitude of reduction on eyeballs, UP4U versus reference controls",[1],comparable
same,vascular leakage and Evans blue extravasation on eyelids and eyeballs,"[2]; rats treated with 48/80 on the ocular surface, 2% UP4U eye drops four times daily for 3 days and twice on the fourth day",reduced
same,"magnitude of reduction in vascular leakage and Evans blue extravasation, UP4U versus reference controls",[2],comparable
"Nc1ccn([C@H]2C[C@H](O)[C@@H](COP(=O)(O)OP(=O)(O)OP(=O)(O)OP(=O)(O)OC[C@H]3O[C@@H](n4ccc(=O)[nH]c4=O)[C@H](O)[C@@H]3O)O2)c(=O)n1 [UP4dC, P^1-(2′-deoxycytidine 5′)-P^4-(uridine 5′-)tetraphosphate]",days with statistically significant reductions (p≦0.05) compared with placebo: Nasal blockage/stuffiness,[3]; [5],AM-Day 4
same,days with statistically significant reductions (p≦0.05) compared with placebo: Post-nasal drip,[3]; [5],AM-Days 4 and 6
same,days with statistically significant reductions (p≦0.05) compared with placebo: Nasal blockage/stuffiness,[3]; [6],AM-Day 5
same,days with statistically significant reductions (p≦0.05) compared with placebo: Post-nasal drip,[3]; [6],AM-Days 5 and 6
same,days with statistically significant reductions (p≦0.05) compared with placebo: Rhinorrhea,[3]; [6],PM-Day 5
same,days with statistically significant reductions (p≦0.05) compared with placebo: Total Symptom Score,[3]; [6],AM-Days 5 and 6
same,days with statistically significant reductions (p≦0.05) compared with placebo: Itching,[3]; [7],AM-Day 3
same,days with statistically significant reductions (p≦0.05) compared with placebo: TNSS,[3]; [7],AM-Day 3
same,days with statistically significant reductions (p≦0.05) compared with placebo: Total Symptom Score,[3]; [7],PM-Day 5
same,change from the placebo run-in period in TNSS averaged over the entire 6-day treatment period,"[3]; AM (0–15 scale), 5 mg/mL nasal spray twice daily",−0.96 (2.08)
same,change from the placebo run-in period in TNSS averaged over the entire 6-day treatment period,"[3]; AM (0–15 scale), 10 mg/mL nasal spray twice daily",−1.20 (2.00)
same,change from the placebo run-in period in TNSS averaged over the entire 6-day treatment period,"[3]; AM (0–15 scale), 40 mg/mL nasal spray twice daily",−1.14 (2.02)
same,change from the placebo run-in period in TNSS averaged over the entire 6-day treatment period,"[3]; AM + PM (0–30 scale), 5 mg/mL nasal spray twice daily",−2.02 (4.31)
same,change from the placebo run-in period in TNSS averaged over the entire 6-day treatment period,"[3]; AM + PM (0–30 scale), 10 mg/mL nasal spray twice daily",−2.59 (4.50)
same,change from the placebo run-in period in TNSS averaged over the entire 6-day treatment period,"[3]; AM + PM (0–30 scale), 40 mg/mL nasal spray twice daily",−2.09 (3.99)
same,change from the placebo run-in period in TNSS averaged over the entire 6-day treatment period,"[3]; PM (0–15 scale), 5 mg/mL nasal spray twice daily",−0.94 (2.07)
same,change from the placebo run-in period in TNSS averaged over the entire 6-day treatment period,"[3]; PM (0–15 scale), 10 mg/mL nasal spray twice daily",−1.26 (2.46)
same,change from the placebo run-in period in TNSS averaged over the entire 6-day treatment period,"[3]; PM (0–15 scale), 40 mg/mL nasal spray twice daily",−1.01 (2.55)
same,"reductions in TNSS compared with placebo for AM, PM, and AM+PM analyses","[3]; active treatment groups 5, 10, 40 mg/mL, not statistically significant versus placebo",consistently greater reductions
same,mean STT,[4]; 5-hour (300-minute) post-dose assessment,9.58 (±10.30) minutes
same,mean STT,[4]; 5-minute post-dose assessment,7.04 (±6.06) minutes
same,STT mean (± SD),[4]; 5 minute,6.89 (5.36) minutes
same,STT mean (± SD),[4]; 300 minute,8.41 (5.79) minutes
same,time elapsed before the saccharin was tasted compared to placebo,"[4]; UP4dC nasal spray, single dose, humans",shorten
"CN1CCC(=C2c3ccccc3CC(=O)c3sccc32)CC1 [ketotifen, reference compound]","magnitude of reduction on eyeballs, UP4U versus reference controls",[1],comparable
same,"magnitude of reduction in vascular leakage and Evans blue extravasation, UP4U versus reference controls",[2],comparable
"C[C@@H]1CN([C@H]2CC[C@](C#N)(c3ccc(F)cc3)CC2)CC[C@]1(C(=O)O)c1ccccc1 [levocabastine, reference compound]","magnitude of reduction on eyeballs, UP4U versus reference controls",[1],comparable
same,"magnitude of reduction in vascular leakage and Evans blue extravasation, UP4U versus reference controls",[2],comparable
